The source of these data is patent publication USRE49735E1 (BRISTOL-MYERS SQUIBB COMPANY, priority 2010, dated 2023).

pEC50: −log10 of the molar value. Several values for one entry are separate records, joined by “and”; a condition that tells them apart may be missing. Identical values can stand only once.

Chain of human mGluR5A (P41594 21-1180 isoform P41594-2): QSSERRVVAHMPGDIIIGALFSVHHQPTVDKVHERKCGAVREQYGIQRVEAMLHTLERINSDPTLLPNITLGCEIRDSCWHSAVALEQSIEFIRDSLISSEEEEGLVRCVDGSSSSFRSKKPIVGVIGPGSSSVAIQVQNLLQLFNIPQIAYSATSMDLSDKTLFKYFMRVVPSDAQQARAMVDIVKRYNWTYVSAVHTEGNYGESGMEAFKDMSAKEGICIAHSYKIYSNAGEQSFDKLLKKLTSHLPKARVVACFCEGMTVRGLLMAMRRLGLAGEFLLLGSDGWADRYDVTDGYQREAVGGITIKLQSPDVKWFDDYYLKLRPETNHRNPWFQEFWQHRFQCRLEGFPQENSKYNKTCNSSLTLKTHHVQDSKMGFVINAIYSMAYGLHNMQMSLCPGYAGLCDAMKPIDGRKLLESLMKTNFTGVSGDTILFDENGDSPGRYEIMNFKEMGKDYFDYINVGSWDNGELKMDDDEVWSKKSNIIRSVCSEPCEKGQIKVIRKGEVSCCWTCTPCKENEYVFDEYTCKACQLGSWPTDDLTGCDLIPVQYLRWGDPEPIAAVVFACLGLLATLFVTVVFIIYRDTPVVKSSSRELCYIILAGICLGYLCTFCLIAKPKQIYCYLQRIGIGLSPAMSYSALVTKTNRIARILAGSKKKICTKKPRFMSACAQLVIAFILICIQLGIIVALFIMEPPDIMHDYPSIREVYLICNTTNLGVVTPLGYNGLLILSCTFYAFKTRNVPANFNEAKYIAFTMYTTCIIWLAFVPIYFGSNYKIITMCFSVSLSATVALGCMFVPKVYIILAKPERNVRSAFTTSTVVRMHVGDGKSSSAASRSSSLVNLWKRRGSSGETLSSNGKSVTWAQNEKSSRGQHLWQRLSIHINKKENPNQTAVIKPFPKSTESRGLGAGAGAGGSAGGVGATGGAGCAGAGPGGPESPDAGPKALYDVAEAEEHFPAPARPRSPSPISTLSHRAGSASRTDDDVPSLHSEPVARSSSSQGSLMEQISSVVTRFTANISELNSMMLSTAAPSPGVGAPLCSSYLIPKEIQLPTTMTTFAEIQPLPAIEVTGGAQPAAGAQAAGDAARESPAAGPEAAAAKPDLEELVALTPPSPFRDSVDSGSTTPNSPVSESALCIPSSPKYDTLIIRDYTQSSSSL

The assay addresses human mGluR5A (Homo sapiens, UniProt P41594). Kind of assay: mGluR5 FLIPR Assay. It is filed as cell-based. Conditions: positive modulator activity; HEK293 (ZF) cells with human mGluR5A and rat GLAST; Ca++ response to ~EC10 glutamate.
As a reminder, the pEC50 is the negative decadic logarithm of the EC50, by convention in mol/L. The low end stands for a high EC50, the high end for a low EC50. As to `COc1cccc([C@H]2OC(=O)N[C@@H]2c2cccc(C#Cc3ccccc3OC)c2)c1` [Example 91, (4R,5R)-5-(3-Methoxyphenyl)-4-(3-((2-methoxyphenyl)ethynyl)phenyl)oxazolidin-2-one], the pEC50 is 6.00 to 7.00.

Consider `COc1cccc([C@H]2OC(=O)N[C@@H]2c2cccc(C#Cc3cnccc3OC)c2)c1` [Example 92, (4R,5R)-5-(3-Methoxyphenyl)-4-(3-((4-methoxypyridin-3-yl)ethynyl)phenyl)oxazolidin-2-one], for which the pEC50 is less than 6.00.

`CNc1ncc(C#Cc2cccc([C@H]3NC(=O)O[C@@H]3c3cccc(OC)c3)c2)cn1` [Example 93]: the pEC50 is less than 6.00.

`CCOc1ncc(C#Cc2cccc([C@H]3NC(=O)O[C@@H]3c3cccc(OC)c3)c2)cn1` [Example 94, (4R,5R)-4-(3-((2-Ethoxypyrimidin-5-yl)ethynyl)phenyl)-5-(3-methoxyphenyl)oxazolidin-2-one] showed a pEC50 of less than 6.00.

As to `O=C1N[C@@H](c2cccc(C#Cc3ccccc3)c2)[C@@H](c2ccccc2)O1` [Example 97, (4S,5R)-5-phenyl-4-(3-(phenylethynyl)phenyl)oxazolidin-2-one], the pEC50 is less than 6.00.

`Cc1ccc([C@H]2OC(=O)N[C@@H]2c2cccc(C#Cc3ccccc3)c2)cc1C` [Example 101, (4R,5R)-5-(3,4-dimethylphenyl)-4-(3-(phenylethynyl)phenyl)oxazolidin-2-one] gave a pEC50 greater than 7.00.

In the case of `Cc1ccc([C@H]2OC(=O)N[C@@H]2c2cccc(C#Cc3ccccc3)c2)cc1` [Example 107], the negative logarithm of the EC50 (pEC50) was greater than 7.00.

`Cc1ccc([C@@H]2OC(=O)N[C@H]2c2cccc(C#Cc3ccccc3)c2)cc1` [Example 108] gave a pEC50 of less than 6.00.

In turn, `O=C1N[C@H](c2cccc(C#Cc3ccccc3)c2)[C@@H](c2ccccc2F)O1` [Example 109, (4R,5R)-5-(2-fluorophenyl)-4-(3-(phenylethynyl)phenyl)oxazolidin-2-one] had a pEC50 greater than 7.00.

Compound `O=C1N[C@@H](c2cccc(C#Cc3ccccc3)c2)[C@H](c2ccccc2F)O1` [Example 110, (4S,5S)-5-(2-fluorophenyl)-4-(3-(phenylethynyl)phenyl)oxazolidin-2-one] gave a pEC50 of less than 6.00.

In turn, `O=C1NC(c2cccc(C#Cc3ccccc3)c2)C(c2cccc(F)c2)O1` (centres unmarked) [Example 113] had a pEC50 of 6.00 to 7.00.

Take `O=C1N[C@@H](c2cccc(C#Cc3ccccc3)c2)[C@H](c2ccc(F)cc2)O1` [Example 115, (4S,5S)-5-(4-fluorophenyl)-4-(3-(phenylethynyl)phenyl)oxazolidin-2-one]: the pEC50 was less than 6.00.

Turning to `O=C1N[C@H](c2cccc(C#Cc3ccccc3)c2)[C@@H](c2cccnc2)O1` [Example 117, (4R,5R)-4-(3-(phenylethynyl)phenyl)-5-(pyridin-3-yl)oxazolidin-2-one], the pEC50 was > 7.00 and 8.33.

With `O=C1N[C@@H](c2cccc(C#Cc3ccccc3)c2)[C@H](c2cccnc2)O1` [Example 118, (4S,5S)-4-(3-(phenylethynyl)phenyl)-5-(pyridin-3-yl)oxazolidin-2-one], the pEC50 is less than 6.00.

Consider `COc1cccc([C@H]2OC(=O)N[C@@H]2c2cccc(C#Cc3ccc(C(F)(F)F)cc3)c2)c1` [Example 119, (4R,5R)-5-(3-methoxyphenyl)-4-(3-((4-(trifluoromethyl)phenyl)ethynyl)phenyl)oxazolidin-2-one], for which the pEC50 is less than 6.00.

`COc1cccc([C@H]2OC(=O)N[C@@H]2c2cccc(C#Cc3ccccc3F)c2)c1` [Example 121, (4R,5R)-4-(3-((2-fluorophenyl)ethynyl)phenyl)-5-(3-methoxyphenyl)oxazolidin-2-one] had a pEC50 greater than 7.00.

Regarding `COc1cccc([C@H]2OC(=O)N[C@@H]2c2cccc(C#Cc3cc(F)cc(F)c3)c2)c1` [Example 123, (4R,5R)-4-(3-((3,5-difluorophenyl)ethynyl)phenyl)-5-(3-methoxyphenyl)oxazolidin-2-one], the pEC50 is 6.00 to 7.00.

With `COc1cccc([C@@H]2OC(=O)N[C@H]2c2cccc(C#Cc3cc(F)cc(F)c3)c2)c1` [Example 124, (4S,5S)-4-(3-((3,5-difluorophenyl)ethynyl)phenyl)-5-(3-methoxyphenyl)oxazolidin-2-one], the pEC50 is less than 6.00.

`COc1cccc([C@H]2OC(=O)N[C@@H]2c2cccc(C#Cc3ccccc3C(F)(F)F)c2)c1` [Example 125, (4R,5R)-5-(3-methoxyphenyl)-4-(3-((2-(trifluoromethyl)phenyl)ethynyl)phenyl)oxazolidin-2-one]: the pEC50 was less than 4.52.

In turn, `COc1cccc([C@@H]2OC(=O)N[C@H]2c2cccc(C#Cc3ccccc3C(F)(F)F)c2)c1` [Example 126, (4S,5S)-5-(3-methoxyphenyl)-4-(3-((2-(trifluoromethyl)phenyl)ethynyl)phenyl)oxazolidin-2-one] showed a negative-log EC50 (pEC50) of less than 4.52.

`COc1cccc([C@H]2OC(=O)N[C@@H]2c2cccc(C#Cc3ccc(F)cc3F)c2)c1` [Example 127, (4R,5R)-4-(3-((2,4-difluorophenyl)ethynyl)phenyl)-5-(3-methoxyphenyl)oxazolidin-2-one] gave a pEC50 of 6.00 to 7.00.

As to `COc1cccc([C@@H]2OC(=O)N[C@H]2c2cccc(C#Cc3ccc(F)cc3F)c2)c1` [Example 128, (4S,5S)-4-(3-((2,4-difluorophenyl)ethynyl)phenyl)-5-(3-methoxyphenyl)oxazolidin-2-one], the pEC50 was less than 6.00.

`COc1cccc([C@H]2OC(=O)N[C@@H]2c2cccc(C#Cc3cccc(C(F)(F)F)c3)c2)c1` [Example 129, (4R,5R)-5-(3-methoxyphenyl)-4-(3-((3-(trifluoromethyl)phenyl)ethynyl)phenyl)oxazolidin-2-one] had a pEC50 of less than 6.00.

`COc1cccc([C@@H]2OC(=O)N[C@H]2c2cccc(C#Cc3cccc(C(F)(F)F)c3)c2)c1` [Example 130, (4S,5S)-5-(3-methoxyphenyl)-4-(3-((3-(trifluoromethyl)phenyl)ethynyl)phenyl)oxazolidin-2-one] showed a pEC50 of less than 6.00.

`COc1cccc([C@H]2OC(=O)N[C@@H]2c2cccc(C#Cc3ccc(F)cc3)c2)c1` [Example 131, (4R,5R)-4-(3-((4-fluorophenyl)ethynyl)phenyl)-5-(3-methoxyphenyl)oxazolidin-2-one]: the pEC50 is greater than 7.00.

As to `COc1cccc([C@@H]2OC(=O)N[C@H]2c2cccc(C#Cc3ccc(F)cc3)c2)c1` [Example 132, (4S,5S)-4-(3-((4-fluorophenyl)ethynyl)phenyl)-5-(3-methoxyphenyl)oxazolidin-2-one], the pEC50 is less than 6.00.

As to `COc1cccc([C@H]2OC(=O)N[C@@H]2c2cccc(C#Cc3cccc(F)c3)c2)c1` [Example 133, (4R,5R)-4-(3-((3-fluorophenyl)ethynyl)phenyl)-5-(3-methoxyphenyl)oxazolidin-2-one], the pEC50 is greater than 7.00.

Compound `COc1cccc([C@@H]2OC(=O)N[C@H]2c2cccc(C#Cc3cccc(F)c3)c2)c1` [Example 134, (4S,5S)-4-(3-((3-fluorophenyl)ethynyl)phenyl)-5-(3-methoxyphenyl)oxazolidin-2-one] showed a pEC50 of less than 6.00.

Regarding `O=C1N[C@H](c2cc(C#Cc3cccnc3)cnc2F)[C@@H](c2cccc(F)c2)O1` [Example 139, (4R,5R)-4-(2-Fluoro-5-(pyridin-3-ylethynyl)pyridin-3-yl)-5-(3-fluorophenyl)oxazolidin-2-one], the pEC50 is greater than 7.00.

Consider `O=C1N[C@H](c2cc(C#Cc3cncc(F)c3)cnc2F)[C@@H](c2cccc(F)c2)O1` [Example 140, (4R,5R)-4-(2-Fluoro-5-((5-fluoropyridin-3-yl)ethynyl)pyridin-3-yl)-5-(3-fluorophenyl)oxazolidin-2-one], for which the pEC50 was greater than 7.00.

Regarding `O=C1N[C@H](c2cc(C#Cc3ccnc(F)c3)cnc2F)[C@@H](c2cccc(F)c2)O1` [Example 141, (4R,5R)-4-(2-Fluoro-5-((2-fluoropyridin-4-yl)ethynyl)pyridin-3-yl)-5-(3-fluorophenyl)oxazolidin-2-one], the pEC50 is greater than 7.00.

Turning to `O=C1N[C@H](c2cc(C#Cc3cccnc3)cnc2F)[C@@H](c2ccc(F)cc2)O1` [Example 142, (4R,5R)-4-(2-Fluoro-5-(pyridin-3-ylethynyl)pyridin-3-yl)-5-(4-fluorophenyl)oxazolidin-2-one], the pEC50 was > 7.00 and 8.43.

On to `O=C1N[C@H](c2cc(C#Cc3cncc(F)c3)cnc2F)[C@@H](c2ccc(F)cc2)O1` [Example 143, (4R,5R)-4-(2-Fluoro-5-((5-fluoropyridin-3-yl)ethynyl)pyridin-3-yl)-5-(4-fluorophenyl)oxazolidin-2-one], for which the pEC50 was greater than 7.00.

For `O=C1N[C@H](c2cc(C#Cc3cncc(F)c3)ncc2F)[C@@H](c2ccc(F)cc2)O1` [Example 144, (4R,5R)-4-(5-Fluoro-2-((5-fluoropyridin-3-yl)ethynyl)pyridin-4-yl)-5-(4-fluorophenyl)oxazolidin-2-one], the pEC50 is greater than 7.00.

As for `O=C1N[C@H](c2cc(C#Cc3cccnc3)cnc2F)[C@@H](c2ccc(C(F)(F)F)cc2)O1` [Example 145, (4R,5R)-4-(2-Fluoro-5-(pyridin-3-ylethynyl)pyridin-3-yl)-5-(4-(trifluoromethyl)phenyl)oxazolidin-2-one], the pEC50 is greater than 7.00.

In turn, `O=C1N[C@H](c2cc(C#Cc3cccnc3)cnc2F)[C@@H](c2ccc(Cl)cc2)O1` [Example 146, (4R,5R)-5-(4-Chlorophenyl)-4-(2-fluoro-5-(pyridin-3-ylethynyl)pyridin-3-yl)oxazolidin-2-on] gave a pEC50 greater than 7.00.

`O=C1N[C@H](c2cc(C#Cc3ncccc3F)cnc2F)[C@@H](c2cccc(F)c2)O1` [Example 147, (4R,5R)-4-(2-Fluoro-5-((3-fluoropyridin-2-yl)ethynyl)pyridin-3-yl)-5-(3-fluorophenyl)oxazolidin-2-one]: the pEC50 is less than 6.00.

Consider `O=C1N[C@H](c2cc(C#Cc3ccccn3)cnc2F)[C@@H](c2cccc(F)c2)O1` [Example 148, (4R,5R)-4-(2-Fluoro-5-(pyridin-2-ylethynyl)pyridin-3-yl)-5-(3-fluorophenyl)oxazolidin-2-one], for which the pEC50 was less than 6.00.
